In PMC7822029, “Nanoparticles Based on Quaternary Ammonium Chitosan-methyl-β-cyclodextrin Conjugate for the Neuropeptide Dalargin Delivery to the Central Nervous System: An In Vitro Study” (Pharmaceutics, 2020):
Non-standard residues stand in square brackets, D forms with d. Residues, ends and D or L forms follow the SMILES beside them.

How the values were obtained:
α-chymotrypsin (CHT) = target: T1, α-chymotrypsin (CHT) (Bos taurus, UniProt P00766); test: Enzymatic degradation kinetics with α-chymotrypsin; type: in vitro ADME; conditions: CHT 0.36 mg/mL mixed, final DAL 0.50 mg/mL, 0.4 M PB, 37 ℃, 80 rpm, HPLC, mean ± SD of three independent experiments
T1 construct: purchased Merk (Merck/Sigma-Aldrich, St. Louis, MO, USA)
Procedure: (§1) Stock 1 mg/mL solutions of DAL-NP or free DAL in filtered 0.4 M PB were used for the enzymatic digestion tests. The solutions were mixed with 0.36 mg/mL CHT or 0.18 mg/mL PAC to obtain solutions with a final DAL concentration of 0.50 mg/mL. The DAL-NP and free DAL samples were subjected to digestion in the presence of CHT or PAC at 37 ℃ in a shaker water bath (80 rpm). At pre-established intervals, samples were withdrawn, appropriately diluted with the mobile phase (4 ℃), and analyzed in triplicate for DAL by HPLC, as described previously. The analysis was repeated in triplicate.

pancreatin (PAC) = test: Enzymatic degradation kinetics with pancreatin; type: in vitro ADME; conditions: PAC 0.18 mg/mL mixed, final DAL 0.50 mg/mL, 0.4 M PB, 37 ℃, HPLC
Procedure: as §1

[1] = Cytotoxicity by WST-1 assay, Caco-2; type: cell-based; conditions: human, WST-1, DAL 17–150 µg/mL, HBSS pH 6.8, three independent experiments, read-out: cell vitality, Caco-2, over the whole concentration range
Procedure: To study the cytotoxicity of the DAL/N^+-Ch-CD complex, we mixed 400 µL of polymer solution (3.175 mg/mL) and 380 µL of 1 mg/mL aqueous DAL, and the mix was lyophilized under the conditions described above. The DAL-NP were lyophilized and the lyophilized product was re-suspended in 250 µL of 0.22 µm filtered water. An aliquot of dispersion (200 µL) was withdrawn and added to 20 µL of Hank’s buffer solution 10× (HBSS 37 ℃, pH 6.8), and the mix was made to 2 mL with HBSS 1X as to have a DAL content of […]. The Caco-2 cells were subjected to DAL concentrations in the 17–150 µg/mL range, while the bEnd.3 cells were brought into contact with DAL concentrations in the 17–100 µg/mL range; more specifically, DAL was free in solution, contained in the DAL/N^+-rCh-CD (1:1) complex, or encapsulated in NP. The cytotoxicity of the compounds under study was evaluated by the WST-1 assay. Caco-2 and bEnd.3 cells were seeded in each well of 96-well plates at a seeding density of 2 × 10^4 cells per well, and left to proliferate for 24 h at 37 ℃ in 5% CO2. The culture medium was then removed and replaced with samples of DAL, DAL/N^+-Ch-CD complex, and DAL-NP, as previously described. Afterwards, formazan dye absorbance was quantified at 450 nm with the reference wavelength of 655 by using an Enspire 230 (Perkin-Elmer, Waltham, MA, USA) multilabel reader.

Caco-2 monolayer = test: Permeation across Caco-2 monolayer (Transwell); type: in vitro ADME; conditions: Caco-2 monolayer 24 days, A-B, apical DAL 150 µg/mL, up to 3 h, HPLC, NP as FITC-labeled DAL-NP
Procedure: The permeation studies were performed as described previously. Briefly, a Caco-2 monolayer was obtained by cell seeding (10^5 cells per well) on Transwell 12-well plates (pore size […], area 1.12 cm^2; Sigma-Aldrich, Saint Louis, MO, USA). Thereafter, 0.5 and 1.5 mL of culture medium were added to apical and basolateral compartments of the inserts, respectively; the culture medium was replaced every 2 days for 24 days. The transepithelial electrical resistance (TEER, Ω cm^2) measurement during the permeatstudies was carried out using a voltmeter with rod electrodes (Voltmeter Millicells-ERS, Millipore, Molsheim, France). The TEER values for the Caco-2 cell monolayer grown on the Transwell filter were ion taken at time 0, every hour for 3 h, and at 24 h.
Both the NP vehicle and the DAL were followed in the mucosal and basolateral phases. […] The withdrawn samples were kept in ice and analyzed by HPLC. The evaluation of DAL contained in NP-FITC by HPLC implied subtracting the contribution of the fluorescein-labeled polymer from the peptide peak area. Therefore, with each sample to be analyzed, a specific fluorescence intensity was recorded by a spectrofluorometer from which the fluorescent polymer concentration to be injected in the HPLC apparatus could be extrapolated. […]

bEnd.3 monolayer = test: Permeation across bEnd.3 monolayer (Transwell, BBB model); type: in vitro ADME, murine
Text: The medium was changed every 2 days.

Procedure for bEnd.3 monolayers: The bEnd.3 cells, at a concentration of 5 × 10^4 cells per well, were seeded on 12-well Transwell plates with polyester filters with 0.4 µm membrane pores and incubated 10 days at 37 ℃ in a 5% CO2 atmosphere. One and a half milliliters of full medium was added to the basal chamber, while a volume of 0.5 mL, including the cells, was added to the apical chamber. The medium was changed every 2 days. After 6 days culture, the medium of the basolateral chamber was replaced by serum-free medium and the cells were cultured for 4 more days before the permeation experiment. To evaluate the confluence of the cell monolayer, and during the permeation studies, we measured the TEER at time 0 and at each hour for 3 h, and then at 24 h, as previously described. […] At 1 h intervals up to 3 h, the runs were interrupted and 500 µL was collected from the apical chamber and 1.5 mL from the basolateral chamber. Permeation of DAL and FITC-labeled vehicle into the basolateral chamber as well as DAL and FITC-labeled vehicle concentrations in the apical chamber were measured as described above.

Row | Papp, NaF 50 μg/mL (bEnd.3 monolayers) | Papp, NaF 100 μg/mL (bEnd.3 monolayers) | Compound | reduction of substrate (DAL) after 5 min with CHT (α-chymotrypsin (CHT)) | reduction of initial DAL content 2 min after adding PAC (pancreatin (PAC); 80 rpm, 2 min, three independent experiments) | DAL present after 5 min with PAC (pancreatin (PAC); 5 min) | viability [1] | DAL presence in basolateral chamber, Caco-2 (Caco-2 monolayer) | TEER of bEnd.3 monolayer during permeation experiment (bEnd.3 monolayer; 100% corresponds to 180 Ω cm^2, initial apical DAL 25 µg/mL, 3 h) | DAL presence in basolateral chamber, bEnd.3 (bEnd.3 monolayer; bEnd.3 monolayer 10 days, Transwell, A-B, apical DAL 25 µg/mL, up to 3 h, HPLC, NP as FITC-labeled DAL-NP)
1 |  |  | CC(C)C[C@H](NC(=O)[C@H](Cc1ccccc1)NC(=O)CNC(=O)[C@@H](C)NC(=O)[C@@H](N)Cc1ccc(O)cc1)C(=O)N[C@@H](CCCNC(=N)N)C(=O)O [DAL, (D-Ala2)-Leu Enkephalin-Arg] (H-Y[dA]GFLR-OH) | 90 ± 0.41% | 85 ± 1.39% | no peptide was present | > 70% | could never be evidenced | 100% | below the analytical limit
2 | 0.51 10-6 cm/sec | 0.52 10-6 cm/sec | O=C1OC2(c3ccc(O)cc3Oc3cc(O)ccc32)c2ccccc21 [NaF, Sodium fluorescein] |  |  |  |  |  |  | 
